Experimental data published in US20220185818A1, “PYRROLOHETEROCYCLIC DERIVATIVE, PREPARATION METHOD THEREFOR, AND APPLICATION THEREOF IN MEDICINE” (Jiangsu Hengrui Medicine Co., Ltd., priority 2019, published 2022).

Experiments:
ERK2 = biological target: T1, ERK2 (Homo sapiens, UniProt P28482); test: ERK2 enzyme activity test (ADP-Glo Kinase Assay); format: biochemical; settings: read-out: IC50 value of the inhibition on ERK2 enzyme activity
T1 construct: purchased R&D 1879-KS-010
Description: (§1) The purpose of this experiment is to detect the inhibitory ability of the compounds on the ERK2 enzyme activity, and evaluate the in vitro activity of the compounds based on the IC50. The ADP-Glo™ Kinase Assay Kit is used in this experiment. Under the action of the enzyme, the substrate is phosphorylated and ADP is produced at the same time. The ADP-Glo reagent is added to remove the unreacted ATP in the reaction system, and the ADP produced by the reaction is detected by the kinase detection reagent. In the presence of the compound, the inhibition rate of the compound is calculated by measuring the signal value.
(§2) ATP was diluted to 500 μM with the buffer. The compound was dissolved in DMSO to prepare a stock solution with an initial concentration of 20 mM, and then Bravo (SGC120TH34702, Agilent Technologies) was used to dilute the stock solution to desired concentrations. Finally, a 3 μL of a mixed solution of enzyme and substrate, and 1 μL of different concentrations of the compound (the initial concentration is 50 μM, 4-fold dilution) were added to each well of the 384-well plate, and the plate was incubated at 30° C. for 10 minutes, and finally 1 μL of 500 μM ATP solution was added to each well, and the plate was incubated at 30° C. for 2 hours. Then 5 μL of ADP-Glo was added, and the plate was incubated at 30° C. for 40 minutes. Then 10 μL of kinase detection buffer was added, and the plate was incubated at 30° C. for 40 minutes. The 384-well plate was taken out and placed in a microplate reader (BMG labtech, PHERAstar FS), and the chemiluminescence was measured by the microplate reader.
(§3) Microsoft Excel, Graphpad Prism 5 was used to process and analyze the data.

[1] = Pharmacokinetics assay in mice; format: in vivo; settings: female, mouse, po, C57 mice, intragastrical administration, 2 mg/kg, plasma; for Vd/F: read-out: Apparent distribution volume Vz/F; for AUC: read-out: Area under curve AUC; for CL/F: read-out: Clearance CLz/F; for half-life: read-out: Half-life T1/2 (converted); for Cmax: read-out: Plasma concentration Cmax; for MRT: read-out: Residence time MRT
Description: Mice were used as test animals. […] The pharmacokinetic behavior of the compounds of the present disclosure was studied in mice, and the pharmacokinetic characteristics were evaluated.
2.2 Test Animals Thirty-six C57 mice (female, equally divided into 4 groups) were purchased from Shanghai Jiesijie Laboratory Animal Co., LTD.
A certain amount of the test compound was weighed and dissolved by the addition of 5% of DMSO and 5% of tween 80. Then 90% of normal saline were added to prepare a 0.1 mg/mL colorless, clear and transparent solution.
After an overnight fast, C57 mice were intragastrically administered the test compound at a dosage of 2 mg/kg and a volume of 0.2 ml/10 g.
The mice were intragastrically administered the test compounds. 0.1 ml of blood was taken before the administration and at 0.25, 0.5, 1.0, 2.0, 4.0, 6.0, 8.0, 11.0 and 24.0 hours after the administration. The samples were stored in heparinized tubes, and centrifuged for 10 minutes at 3500 rpm to separate the blood plasma. The plasma samples were stored at −20° C.
The content of the test compound in the plasma of mice after intragastrical administration of the test compound at different concentrations was determined: 25 μL of […] plasma at each time point after the administration was taken, followed by the addition of 50 μL of the internal standard camptothecin solution (National Institutes for Food and Drug Control of China) and 200 μL of acetonitrile. The resulting solution was vortex-mixed for 5 minutes, and centrifuged for 10 minutes (4000 rpm). 4 μL of the supernatant was taken from the plasma samples for LC/MS/MS analysis.

Colo205 cells = test: In vitro proliferation inhibition test on Colo205 tumor cells (CellTiter-Glo); format: cell-based; settings: Homo sapiens, COLO 205, 72 h; 3 days of culture, CTG; read-out: IC50 value of the inhibition on in vitro Colo205 tumor cell proliferation
Description: The purpose of this experiment is to test the inhibitory activity of the compounds on the proliferation of Colo205 cells (CCL-222, ATCC) in vitro. The cells were treated in vitro with different concentrations of the compounds. After 3 days of culture, the cell proliferation was tested with CTG (CellTiter-Glo® Luminescent Cell Viability Assay, Promega, Catalog No. G7573) reagent, and the in vitro activity of the compounds was evaluated according to the IC50 value.
In the following, taking the in vitro proliferation inhibition test method of Colo205 cells as an example, the method in the present disclosure for testing the in vitro proliferation inhibitory activity of the compounds of the present disclosure is described. This method is also applicable to, but not limited to, the in vitro proliferation inhibitory activity test on other tumor cells.
Colo205 cells were digested, centrifuged and then resuspended. The single cell suspension was mixed well, and the density of viable cells was adjusted to 5.0×10^4 cells/ml with cell culture medium (RPMI1640+2% FBS), and 95 μl/well was added to a 96-well cell culture plate. Only 100 μl medium was added to the peripheral wells of the 96-well plate. The culture plate was incubated in an incubator for 24 hours (37° C., 5% CO2).
The compound was dissolved in DMSO and prepared into a stock solution with an initial concentration of 20 mM. The initial concentration of the small molecule compound was 2 mM, and then 4-fold diluted into 9 points, and the 10th point is DMSO. Another 96-well plate was taken and 90 μl of cell culture medium (RPMI1640+2% FBS) was added to each well, then 10 μl of different concentrations of the test sample was added to each well. The mixture was mixed well, and then 5 μL of different concentrations of the test sample was added to the cell culture plate with duplicate well for each sample. The culture plate was incubated in an incubator for 3 days (37° C., 5% CO2). The 96-well cell culture plate was taken out, 50 μL CTG solution was added to each well, and the plate was incubated for 10 minutes at room temperature. In a microplate reader (BMG labtech, PHERAstar FS), chemiluminescence was measured with the microplate reader.
as §3

ERK1 = biological target: T2, ERK1 (Homo sapiens, UniProt P27361); test: ERK1 enzyme activity test (ADP-Glo Kinase Assay); format: biochemical; settings: read-out: IC50 value of the inhibition on ERK1 enzyme activity
T2 construct: purchased R&D 1879-KS-010
T2 sequence (P27361 whole entry): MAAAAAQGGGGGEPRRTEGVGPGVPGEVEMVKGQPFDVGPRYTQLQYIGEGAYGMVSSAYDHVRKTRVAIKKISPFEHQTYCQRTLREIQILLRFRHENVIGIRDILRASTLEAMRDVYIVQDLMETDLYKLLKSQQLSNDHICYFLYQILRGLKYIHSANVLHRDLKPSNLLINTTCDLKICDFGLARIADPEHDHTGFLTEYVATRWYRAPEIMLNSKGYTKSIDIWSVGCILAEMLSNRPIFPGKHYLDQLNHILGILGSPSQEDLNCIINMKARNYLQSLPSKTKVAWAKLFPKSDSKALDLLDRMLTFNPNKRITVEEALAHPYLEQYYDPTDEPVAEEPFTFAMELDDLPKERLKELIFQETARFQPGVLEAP
Description: as §1, with “the ERK1” for “the ERK2”, “detected with” for “detected by”
as §2, with “diluted to 300 μM with” for “diluted to 500 μM with”, “Finally, a […] of” for “Finally, a 3 μL of”, “and 1 μL, of different” for “and 1 μL of different”, “μL of 300 μM ATP” for “μL of 500 μM ATP”, “μL of Kinase detection buffer” for “μL of kinase detection buffer”
as §3

T1 sequence (P28482 2-360 limits assumed): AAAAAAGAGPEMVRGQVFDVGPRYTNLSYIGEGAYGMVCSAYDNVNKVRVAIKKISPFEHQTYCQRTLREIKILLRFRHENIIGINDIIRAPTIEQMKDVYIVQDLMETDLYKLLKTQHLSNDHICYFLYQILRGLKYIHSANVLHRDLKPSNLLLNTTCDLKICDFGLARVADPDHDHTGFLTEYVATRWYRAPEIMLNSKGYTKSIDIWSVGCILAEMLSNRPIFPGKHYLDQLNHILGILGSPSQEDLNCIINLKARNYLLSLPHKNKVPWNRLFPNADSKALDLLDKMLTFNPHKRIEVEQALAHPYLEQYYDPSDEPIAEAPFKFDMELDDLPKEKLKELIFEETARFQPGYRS

IC50 (ERK2) | Vd/F [1] | AUC [1] | CL/F [1] | half-life [1] | Cmax [1] | MRT [1] | IC50 (Colo205 cells) | IC50 (ERK1) | Compound
0.007 µM | 3.07 L/kg | 3440 ng·h/mL | 9.69 mL/min/kg | 3.66 h | 1020 ng/mL | 3.47 h | 0.062 µM | 0.005 µM | Cn1nccc1Nc1nccc(-c2cc3n(c2)C(=O)N([C@H](CO)c2cccc(Cl)c2)C3)n1 [Example 10, (S)-2-(1-(3-Chlorophenyl)-2-hydroxyethyl)-6-(2-((1-methyl-1H-pyrazol-5-yl)amino)pyrimidin-4-yl)-1,2-dihydro-3H-pyrrolo[1,2-c]imidazol-3-one]
0.005 µM | 2.13 L/kg | 3700 ng·h/mL | 9 mL/min/kg | 2.74 h | 816 ng/mL | 3.3 h | 0.055 µM | 0.005 µM | Cc1cccc([C@@H](CO)N2Cc3cc(-c4ccnc(Nc5ccnn5C)n4)cn3C2=O)c1 [Example 15, (S)-2-(2-Hydroxy-1-(m-tolyl)ethyl)-6-(2-((1-methyl-1H-pyrazol-5-yl)amino)pyrimidin-4-yl)-1H-pyrrolo[1,2-c]imidazol-3(2H)-one]
0.018 µM | 1.41 L/kg | 7630 ng·h/mL | 4.37 mL/min/kg | 3.73 h | 1540 ng/mL | 4.95 h | 0.068 µM | 0.03 µM | Cn1nccc1Nc1nccc(-c2cc3n(c2)C(=O)N([C@H](CO)c2ccc(Cl)c(F)c2)C3)n1 [Example 20, (S)-2-(1-(3-Fluoro-4-chlorophenyl)-2-hydroxyethyl)-6-(2-((1-methyl-1H-pyrazol-5-yl)amino)pyrimidin-4-yl)-1H-pyrrolo[1,2-c]imidazol-3(2H)-one]
